Data as given in patent US20040220268A1, “Compound that directly stimulates phospholipase C activity” (priority 2003, published 2004).

Experiments:
phospholipase D = experiment: In vitro activity of phospholipase D; type: biochemical; details: data not shown
PLC = experiment: In vitro PLC activity in the presence or absence of Ca2+; type: biochemical; details: data not shown
Excerpt: Moreover, the primary structures of the several different isoforms of PLC are known (Rhee, 2001; Noh et al., 1995). PLC β and PLC δ have an NH2-terminal PH domain, an EF-hand, X and Y domains, known to form the catalytic core, and a COOH-terminal C2 domain. In addition, PLC β has a long C-terminal tail beyond the C2 domain (Rhee, 2001; Noh et al., 1995; Rhee and Bae, 1997). PLC γ has additional three SH domains between the X and Y domains, but no long COOH-terminal tail (Rhee, 2001; Noh et al., 1995; Rhee and Bae, 1997). […] For the proper activation of PLC enzyme, calcium has been regarded as an essential requirement (Rhee and Bae, 1997). Calcium is required not only for the functioning of C2 domain that mediates the Ca^2+-dependent binding to lipid vesicles but also for the catalytic activity of the enzyme (Rhee and Bae, 1997). […] An investigation of the effect of m-3M3FBS on the lipase activity of an X and Y domain mixture will be required to confirm the possible action of m-3M3FBS on the two catalytic cores. Since m-3M3FBS is the first compound that directly stimulates PLC activity, the elucidation of the action mechanism of the compound will give useful information on the basic molecular mechanisms of the activation of PLC enzymes.

[1] = tested on: PTX-sensitive Gi-proteins; experiment: PTX sensitivity of [Ca2+]i increase in neutrophils; type: cell-based, human; details: PTX 1 μg/ml for 90 min; m-3M3FBS 25 μM, fMLF 1 μM
Description: (§1) Isolated neutrophils were preincubated with PTX (1 μg/ml) or vehicle for 90 min at 37° C. and stimulated with m-3M3FBS, FMLF, or ATP at concentrations of 25, 1, and 500 μM, respectively. Changes in the excitation ratios at 340 nm/380 nm were monitored. Data are presented as means ±S. E. M. of two independent experiments (A). cAMP levels were determined by a radio receptor assay. Prepared cells were treated with m-3M3FBS (25 μM) or histamine (100 μM) and then lysed with Tris-EDTA. After removing the supernatant, [ 3H] cAMP and protein were added, and the amount of [^3H] cAMP-protein complex was determined. The amount of unlabeled cAMP (in the sample) was then calculated by measuring the protein-bound radioactivity. Data are presented as means ±S. E. M. of two independent experiments (B). RGS2-GFP inducible HeLa cells were cultured for 48 h in the absence or in the presence of tetracycline, and the induction of RGS2-GFP was confirmed by Western blot analysis using anti-GFP antibody (C). RGS2-GFP inducible HeLa cells were cultured for 48 h in the absence or in the presence of tetracycline and loaded with fura-2. Cells were treated with histamine (100 μM) or m-3M3FBS (25 μM), and changes in the 340 nm/380 nm ratios were monitored and converted to [Ca^2+]i values. The results shown are representative of three independent experiments (C).
(§2) Freshly prepared human neutrophils were incubated in serum free RPMI 1640 medium with 3 μM of fura-2/AM at 37° C. for 30 min with continuous stirring. After washing with serum free RPMI 1640 medium, the cells were suspended in serum free RPMI containing 250 μM of sulfinpyrazone to prevent dye leakage. About 2×10^6 cells were suspended in Ca^2+ free Locke's solution (158.4 mM NaCl, 5.6 mM KCl, 1.2 mM MgCl2, 5 mM HEPES pH 7.3, 10 mM glucose, and 0.2 mM EGTA) for each measurement. Changes in the fluorescence ratio were measured at an emission wavelength of 500 nm for dual excitation wavelengths at 340 nm and 380 nm. The calibration of the fluorescence ratio versus [Ca^2+]i was performed as described by Grynkiewicz (Grynkiewicz et al., 1985).

Gq-proteins = experiment: [Ca2+]i in RGS2-GFP inducible HeLa cells; type: cell-based, human; details: histamine 100 μM, m-3M3FBS 25 μM
Description: as §1, with “RGS2-GFP inducible HeLa cells were cultured for 48 h in the absence or in the presence of tetracycline, and the induction of RGS2-GFP was confirmed by Western blot analysis using anti-GFP antibody (C).” left out
pRevTRE vector containing the cDNA of rat RGS2-GFP was transfected into Hela Tet-off cells using Lipofectamine. Selection was performed in DMEM supplemented with 2 μg/ml of tetracycline and 500 μg/ml of hygromycin B. Two weeks later, several well-isolated colonies were picked out and analyzed by western blotting to determine the expression level of RGS2 in the absence of tetracycline. For these experiments, HeLa cells were cultured for 48 h in the absence or in the presence of tetracycline.
as §2

human neutrophils = experiment: Superoxide anion generation (lucigenin chemiluminescence); type: cell-based; details: up to 50 μM
Description: Superoxide anion generation was measured by monitoring chemiluminescence in the presence of the chemiluminogenic probe lucigenin. Prepared neutrophils were stimulated with m-3M3FBS or o-3M3FBS at 2.5, 5, 10, 15, 20, 25, and 50 μM and lucigenin (40 μM) was then added. Luminescence changes were measured using a Luminoskan. Data are presented as means ±S. E. M. of four independent experiments (A). Structures of m-3M3FBS (2,4,6-Trimethyl-N-(meta 3-trifluoromethyl-phenyl)-benzenesulfonamide) and o-3M3FBS (2,4,6-Trimethyl-N-(ortho 3-trifluoromethyl-phenyl)-benzenesulfonamide) (B).
Superoxide anion production was measured by monitoring chemiluminescence in the presence of the chemiluminogenic probe lucigenin (Bureau et al., 2001). Prepared neutrophils were plated in 96 wells and stimulated with chemicals at concentrations of 2.5, 5, 10, 15, 20, 25 and 50 μM, and then the lucigenin (40 μM) was added. Luminescence, measured with a Luminoskan (Labsystems, Inc., Helsinki, Finland), was integrated over 10 s intervals for a total of 3 min at room temperature.

Compound | activity of phospholipase D (phospholipase D) | in vitro PLC activity (PLC) | effect of PTX preincubation on the induced calcium increase [1] | [Ca2+]i increase (Gq-proteins; HeLa cells in the presence of tetracycline (RGS2 not induced)) | effect of RGS2 induction on the induced calcium response (Gq-proteins; HeLa cells overexpressing RGS2) | effect on superoxide generation (human neutrophils)
Cc1cc(C)c(S(=O)(=O)Nc2cccc(C(F)(F)F)c2)c(C)c1 [m-3M3FBS, 2,4,6-Trimethyl-N-(meta 3-trifluoromethyl-phenyl)-benzenesulfonamide] | did not affect | stimulated | insensitive to PTX | caused [Ca^2+]i increases | unaffected | –
Cc1cc(C)c(S(=O)(=O)Nc2ccccc2C(F)(F)F)c(C)c1 [o-3M3FBS, 2,4,6-Trimethyl-N-(ortho 3-trifluoromethyl-phenyl)-benzenesulfonamide, reference compound] | – | – | – | – | – | did not affect
